Assay results from ChEMBL document CHEMBL5055643, “Sophoraflavanone G Resensitizes ABCG2-Overexpressing Multidrug-Resistant Non-Small-Cell Lung Cancer Cells to Chemotherapeutic Drugs” (J Nat Prod, 2021).
The source made the active and inactive calls. No cut-off for these calls is given here.

How the values were obtained:
A549 [1] = test: Chemo-sensitizing activity against human A549 cells assessed as reversal fold at 2 uM measured after 72 hrs in presence of mitoxantrone by CCK8 assay relative to control; format: functional
KB-V1 [2] = test: Chemo-sensitizing activity against ABCB1-overexpressing human KB-V1 cells assessed as reversal fold at 2 uM measured after 72 hrs in presence of paclitaxel by CCK8 assay relative to control; format: functional
A549 [3] = test: Effect on ABCG2 protein expression in becatecarin-selected ABCG2-overexpressing human A549/Bec150 cells at 1 to 5 uM incubated for 72 hrs by immunoblot analysis; format: functional, cell-based; conditions: dose 1-5 µM
ABCG2 = test: Resistance factor, ratio of IC50 for mitoxantrone-selected ABCG2-overexpressing human NCI-H460/MX20 cells to IC50 for human NCI-H460 cells; format: ADME; conditions: read-out: Ratio IC50
HEK293 [4] = test: Chemo-sensitizing activity against ABCG2-overexpressing human HEK293/482R cells assessed as reversal fold at 1 uM measured after 72 hrs in presence of SN-38 by CCK8 assay relative to control; format: functional
NCI/ADR-RES [5] = test: Chemo-sensitizing activity against ABCB1-overexpressing human NCI/ADR-RES cells assessed as reversal fold at 1 uM measured after 72 hrs in presence of vincristine by CCK8 assay relative to control; format: functional
NCI/ADR-RES [6] = test: Chemo-sensitizing activity against ABCB1-overexpressing human NCI/ADR-RES cells assessed as reversal fold at 2 uM measured after 72 hrs in presence of vincristine by CCK8 assay relative to control; format: functional
HEK293 [7] = test: Chemo-sensitizing activity against ABCB1-overexpressing human HEK293/MDR19 cells assessed as reversal fold at 5 uM measured after 72 hrs in presence of paclitaxel by CCK8 assay relative to control; format: functional
HEK293 [8] = test: Chemo-sensitizing activity against ABCG2-overexpressing human HEK293 cells assessed as reversal fold at 5 uM measured after 72 hrs in presence of topotecan by CCK8 assay relative to control; format: functional
[9] = Cytotoxicity against mitoxantrone-selected ABCG2-overexpressing human NCI-H460/MX20 cells assessed as cell viability at 1 to 5 uM measured after 72 hrs by CCK8 assay; format: ADME, cell-based; conditions: dose 1-5 µM, read-out: Activity
A549 [10] = test: Cytotoxicity against becatecarin-selected ABCG2-overexpressing human A549/Bec150 cells assessed as reduction in cell viability measured after 72 hrs by CCK8 assay; format: ADME, cell-based; conditions: A549, 72 h
OVCAR-8 = test: Chemo-sensitizing activity against human OVCAR-8 cells assessed as reversal fold at 1 uM measured after 72 hrs in presence of vincristine by CCK8 assay relative to control; format: functional
HEK293 [11] = test: Chemo-sensitizing activity against human HEK293 cells assessed as reversal fold at 2 uM measured after 72 hrs in presence of colchicine by CCK8 assay relative to control; format: functional
A549 [12] = test: Chemo-sensitizing activity against becatecarin-selected ABCG2-overexpressing human A549/Bec150 cells assessed as reversal fold at 1 uM measured after 72 hrs in presence of topotecan by CCK8 assay relative to control; format: functional
NCI-H460 [13] = test: Chemo-sensitizing activity against mitoxantrone-selected ABCG2-overexpressing human NCI-H460/MX20 cells assessed as reversal fold at 2 uM measured after 72 hrs in presence of SN-38 by CCK8 assay relative to control; format: functional
HEK293 [14] = test: Chemo-sensitizing activity against human HEK293 cells assessed as reversal fold at 5 uM measured after 72 hrs in presence of mitoxatrone by CCK8 assay relative to control; format: functional
NCI-H460 [15] = test: Effect on ABCG2 protein expression in mitoxantrone-selected ABCG2-overexpressing human NCI-H460/MX20 cells at 1 to 5 uM incubated for 72 hrs by immunoblot analysis; format: functional, cell-based; conditions: dose 1-5 µM
HEK293 [16] = test: Chemo-sensitizing activity against human HEK293 cells assessed as reversal fold at 5 uM measured after 72 hrs in presence of topotecan by CCK8 assay relative to control; format: functional
KB 3-1 = test: Chemo-sensitizing activity against human KB 3-1 cells assessed as reversal fold at 2 uM measured after 72 hrs in presence of paclitaxel by CCK8 assay relative to control; format: functional
HEK293 [17] = test: Chemo-sensitizing activity against human HEK293 cells assessed as reversal fold at 1 uM measured after 72 hrs in presence of SN-38 by CCK8 assay relative to control; format: functional
A549 [18] = test: Chemo-sensitizing activity against becatecarin-selected ABCG2-overexpressing human A549/Bec150 cells assessed as reversal fold at 5 uM measured after 72 hrs in presence of SN-38 by CCK8 assay relative to control; format: functional
HEK293 [19] = test: Chemo-sensitizing activity against ABCG2-overexpressing human HEK293/482R cells assessed as reversal fold at 5 uM measured after 72 hrs in presence of mitoxatrone by CCK8 assay relative to control; format: functional
NCI-H460 [20] = test: Chemo-sensitizing activity against human NCI-H460 cells assessed as reversal fold at 1 uM measured after 72 hrs in presence of mitoxantrone by CCK8 assay relative to control; format: functional
HEK293 [21] = test: Chemo-sensitizing activity against human HEK293 cells assessed as reversal fold at 2 uM measured after 72 hrs in presence of mitoxatrone by CCK8 assay relative to control; format: functional
A549 [22] = test: Chemo-sensitizing activity against becatecarin-selected ABCG2-overexpressing human A549/Bec150 cells assessed as reversal fold at 2 uM measured after 72 hrs in presence of topotecan by CCK8 assay relative to control; format: functional
A549 [23] = test: Chemo-sensitizing activity against human A549 cells assessed as reversal fold at 5 uM measured after 72 hrs in presence of SN-38 by CCK8 assay relative to control; format: functional
HEK293 [24] = test: Chemo-sensitizing activity against ABCB1-overexpressing human HEK293/MDR19 cells assessed as reversal fold at 1 uM measured after 72 hrs in presence of vincristine by CCK8 assay relative to control; format: functional
KB-V1 [25] = test: Chemo-sensitizing activity against ABCB1-overexpressing human KB-V1 cells assessed as reversal fold at 1 uM measured after 72 hrs in presence of paclitaxel by CCK8 assay relative to control; format: functional
NCI-H460 [26] = test: Chemo-sensitizing activity against human NCI-H460 cells assessed as reversal fold at 2 uM measured after 72 hrs in presence of SN-38 by CCK8 assay relative to control; format: functional
KB-V1 [27] = test: Chemo-sensitizing activity against ABCB1-overexpressing human KB-V1 cells assessed as reversal fold at 5 uM measured after 72 hrs in presence of vincristine by CCK8 assay relative to control; format: functional
NCI-H460 [28] = test: Cytotoxicity against human NCI-H460 cells assessed as reduction in cell viability measured after 72 hrs by CCK8 assay; format: cell-based; conditions: NCI-H460, 72 h
NCI-H460 [29] = test: Chemo-sensitizing activity against human NCI-H460 cells assessed as reversal fold at 2 uM measured after 72 hrs in presence of topotecan by CCK8 assay relative to control; format: functional
KB-V1 [30] = test: Chemo-sensitizing activity against ABCB1-overexpressing human KB-V1 cells assessed as reversal fold at 1 uM measured after 72 hrs in presence of vincristine by CCK8 assay relative to control; format: functional
A549 [31] = test: Chemo-sensitizing activity against human A549 cells assessed as reversal fold at 2 uM measured after 72 hrs in presence of SN-38 by CCK8 assay relative to control; format: functional

C=C(C)[C@H](CC=C(C)C)Cc1c(O)cc(O)c2c1O[C@H](c1ccc(O)cc1O)CC2=O [SOPHORAFLAVANONE G]
fold change (FC) (A549 [1]): 1.6
fold change (FC) (KB-V1 [2]): 1.2
Activity (A549 [3]): inactive
selectivity ratio (ABCG2): 0.8
fold change (FC) (HEK293 [4]): 2.1
fold change (FC) (NCI/ADR-RES [5]): 1
fold change (FC) (NCI/ADR-RES [6]): 1
fold change (FC) (HEK293 [7]): 1.3
fold change (FC) (HEK293 [8]): 5
viability at 72 h, 5 µM [9]: > 90%
IC50 (A549 [10]): 21.3 µM
fold change (FC) (OVCAR-8): 1
fold change (FC) (HEK293 [11]): 0.9
fold change (FC) (A549 [12]): 1.7
fold change (FC) (NCI-H460 [13]): 3.7
fold change (FC) (HEK293 [14]): 1.1
Activity (NCI-H460 [15]): inactive
fold change (FC) (HEK293 [16]): 0.8
fold change (FC) (KB 3-1): 1.1
fold change (FC) (HEK293 [17]): 1
fold change (FC) (A549 [18]): 7.7
fold change (FC) (HEK293 [19]): 5.6
fold change (FC) (NCI-H460 [20]): 2.3
fold change (FC) (HEK293 [21]): 0.9
fold change (FC) (A549 [22]): 1.8
fold change (FC) (A549 [23]): 1.2
fold change (FC) (HEK293 [24]): 0.7
fold change (FC) (KB-V1 [25]): 0.9
fold change (FC) (NCI-H460 [26]): 1.7
fold change (FC) (KB-V1 [27]): 1.3
IC50 (NCI-H460 [28]): 29.3 µM
fold change (FC) (NCI-H460 [29]): 2.1
fold change (FC) (KB-V1 [30]): 1
fold change (FC) (A549 [31]): 1.1
